Measurements taken from patent US10501518B2 (priority 2013, dated 2019).
Starred links: 1 amine or outer side, 2 acyl side, 3 side chain; linkers in the order of their positions; H or OH if unused. Non-standard residues stand in square brackets, D forms with d. Residues, ends and D or L forms follow the SMILES beside them. *: point of attachment. NH(1S,2S-2-CONH2-cPent) = NC(=O)[C@H]1CCC[C@@H]1N*; X12 = O=C([C@H]1CCC[C@@H]1N[*:1])[*:2]; X13 = O=C([C@H]1CNC[C@@H]1N[*:1])[*:2]; ACPC(1S,2S) = N[C@H]1CCC[C@@H]1C(=O)*

Experiments:
R^0 form of rat PTHR-1 = target: T1, R^0 form of rat PTHR-1 (Rattus norvegicus, UniProt P25961); experiment: Radio-ligand competition binding to R^0 form of rat PTHR-1; conditions: Table 5; rat PTHR-1; mean ± SEM; read-out: R^0 -log (IC50) (converted)
T1 construct: expressed in transfected cells; host or cells: COS-7
T1 sequence (P25961 27-591): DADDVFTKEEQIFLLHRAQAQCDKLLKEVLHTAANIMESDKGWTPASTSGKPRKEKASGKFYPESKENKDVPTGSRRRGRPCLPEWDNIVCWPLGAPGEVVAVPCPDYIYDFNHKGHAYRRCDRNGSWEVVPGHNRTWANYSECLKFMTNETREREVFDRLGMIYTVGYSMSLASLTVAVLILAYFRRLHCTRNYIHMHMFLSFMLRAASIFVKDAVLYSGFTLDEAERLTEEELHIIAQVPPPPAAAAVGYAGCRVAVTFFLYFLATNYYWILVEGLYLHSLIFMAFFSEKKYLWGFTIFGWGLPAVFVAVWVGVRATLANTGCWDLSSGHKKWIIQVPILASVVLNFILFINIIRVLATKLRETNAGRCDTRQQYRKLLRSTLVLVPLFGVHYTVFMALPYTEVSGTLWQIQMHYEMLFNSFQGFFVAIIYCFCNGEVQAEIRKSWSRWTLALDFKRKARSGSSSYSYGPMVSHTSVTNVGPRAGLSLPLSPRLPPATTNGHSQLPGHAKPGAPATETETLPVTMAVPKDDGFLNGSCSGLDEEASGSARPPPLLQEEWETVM
Description: Data are means (±SEM) of n≥4 experiments, each performed in duplicate.

WT rat PTHR-1 = target: T2, WT rat PTHR-1 (Rattus norvegicus, UniProt P25961); experiment: cAMP GloSensor dose-response in GR-35 cells expressing rat PTHR-1; format: cell-based; conditions: Table 7; GR-35 cells, 12-16 minutes after ligand addition; mean ± SEM
T2 construct: expressed in transfected cells
T2 sequence (P25961 27-591): T1 sequence (P25961 27-591)
Protocol: FIGS. 9A, 9B, and 9C constitute a series of graphs depicting cAMP responses in GR-35 cells expressing rat PTHR-1-WT. […] Data are means (±SEM) of n>4 experiments, each performed in duplicate.
(§1) For cAMP dose-response assays, monolayers of confluent HEK 293 cells were pre-incubated with buffer containing d-luciferin (0.5 mM) in 96 well plates at room temperature until a stable baseline level of luminescence was established (30 min). Varying concentrations of agonist were then added, and the time course of luminescence response was recorded using a Perkin Elmer plate reader following α/β-peptide addition.

WT human PTHR-1 = target: T3, WT human PTHR-1 (Homo sapiens, UniProt Q03431); experiment: cAMP GloSensor dose-response in GP-2.3 cells expressing human PTHR-1; format: cell-based
T3 construct: bioactivity of the resulting compound in full-length hPTHR-1 and a truncated version; expressed in transfected cells
T3 sequence (Q03431 27-593): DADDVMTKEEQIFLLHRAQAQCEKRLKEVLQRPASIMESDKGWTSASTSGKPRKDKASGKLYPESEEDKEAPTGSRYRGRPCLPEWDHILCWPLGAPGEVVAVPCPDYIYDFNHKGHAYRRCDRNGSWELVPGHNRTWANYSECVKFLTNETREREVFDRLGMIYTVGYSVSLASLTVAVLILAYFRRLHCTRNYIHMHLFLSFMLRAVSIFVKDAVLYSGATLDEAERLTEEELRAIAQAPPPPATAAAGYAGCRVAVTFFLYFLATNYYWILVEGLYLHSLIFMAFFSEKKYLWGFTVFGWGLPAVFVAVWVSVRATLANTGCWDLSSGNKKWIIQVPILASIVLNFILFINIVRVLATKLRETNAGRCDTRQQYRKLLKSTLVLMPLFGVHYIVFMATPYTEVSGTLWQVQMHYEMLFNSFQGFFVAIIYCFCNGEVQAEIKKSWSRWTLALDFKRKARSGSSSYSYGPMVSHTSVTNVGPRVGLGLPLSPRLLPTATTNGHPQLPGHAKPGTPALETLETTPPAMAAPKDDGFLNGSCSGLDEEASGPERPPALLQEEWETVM
Protocol: FIGS. 8A, 8B, and 8C constitute a series of graphs depicting cAMP responses in GP-2.3 cells expressing wild-type human parathyroid hormone receptor 1 (PTHR-1-WT). […] Data are means (±SEM) of n>4 experiments, each performed in duplicate.
as §1

PTH2R/PTH1R = experiment: cAMP response selectivity between PTH2R and PTH1R; format: cell-based; conditions: most selective; for cAMP response PTH2R/PTH1R: Table 16; for cAMP response PTH1R/PTH2R: Table 17
Description: Selected analogs containing beta-amino acid substitutions selectively signal through one or the other of the two receptors. Without being bound to any underling biological phenomenon or mechanism, PTHR-2 likely serves an alternative function to PTHR-1 as it is highly expressed in the central nervous system. In contrast, PTHR-1 is highly expressed in bone and kidney, but not in the CNS. The analogs disclosed herein are thus useful as therapeutic compounds that a specific agonists or antagonists of PTHR-1 and PTHR-2.

PTHR = target: T4, PTHR (Homo sapiens, UniProt Q03431); experiment: cAMP induction potency, N-terminal modifications and cyclic constraints (Tables 9, 10, 13); format: cell-based; conditions: Table 9
T4 construct: expressed in transfected cells
T4 sequence (Q03431 27-593): T3 sequence (Q03431 27-593)

delNT PTHR1 = target: T5, delNT PTHR1 (Homo sapiens, UniProt Q03431, DEL24-181); experiment: cAMP-inducing potency at truncated receptor delNT PTHR1; format: cell-based
T5 construct: expressed in transfected cells
T5 sequence (Q03431 with tags, fused parts or gaps DEL24-181): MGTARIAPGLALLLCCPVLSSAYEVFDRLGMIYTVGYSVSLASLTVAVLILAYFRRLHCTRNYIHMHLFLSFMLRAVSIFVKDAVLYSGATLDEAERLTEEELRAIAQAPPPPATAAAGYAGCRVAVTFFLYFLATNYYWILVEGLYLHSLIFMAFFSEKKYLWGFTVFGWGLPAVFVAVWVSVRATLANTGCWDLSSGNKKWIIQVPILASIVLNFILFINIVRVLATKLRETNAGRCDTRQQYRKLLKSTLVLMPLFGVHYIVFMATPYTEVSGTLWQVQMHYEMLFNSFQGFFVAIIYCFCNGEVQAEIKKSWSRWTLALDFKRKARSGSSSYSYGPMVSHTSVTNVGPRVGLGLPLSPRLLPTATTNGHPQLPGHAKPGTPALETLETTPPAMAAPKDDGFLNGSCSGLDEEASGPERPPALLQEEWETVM

CC[C@H](C)[C@H](NC(=O)[C@H](CCC(=O)O)NC(=O)[C@H](CO)NC(=O)[C@@H](NC(=O)[C@@H](N)CO)C(C)C)C(=O)N[C@@H](CCC(N)=O)C(=O)N[C@@H](CC(C)C)C(=O)N[C@@H](CCSC)C(=O)N[C@@H](Cc1c[nH]cn1)C(=O)N[C@@H](CC(N)=O)C(=O)N[C@@H](CC(C)C)C(=O)NCC(=O)N[C@@H](CCCCN)C(=O)N[C@@H](Cc1c[nH]cn1)C(=O)N[C@@H](CC(C)C)C(=O)N[C@@H](CC(N)=O)C(=O)N[C@@H](CO)C(=O)N[C@@H](CCSC)C(=O)N[C@@H](CCC(=O)O)C(=O)N[C@@H](CCCNC(=N)N)C(=O)N[C@H](C(=O)N[C@@H](CCC(=O)O)C(=O)N[C@@H](Cc1c[nH]c2ccccc12)C(=O)N[C@@H](CC(C)C)C(=O)N[C@@H](CCCNC(=N)N)CC(=O)N[C@@H](CCCCN)C(=O)N[C@@H](CCCCN)C(=O)N[C@@H](CC(C)C)C(=O)N[C@@H](CCC(N)=O)CC(=O)N[C@@H](CC(=O)O)C(=O)N[C@H](C(=O)N[C@@H](Cc1c[nH]cn1)C(=O)N[C@@H](CC(N)=O)CC(=O)N[C@@H](Cc1ccccc1)C(N)=O)C(C)C)C(C)C [C3]
IC50 (R^0 form of rat PTHR-1): 4.57 nM
Max (WT rat PTHR-1): 68 ± 77 luminescence counts per second × 10−3
EC50 (WT human PTHR-1; Table 1, GP-2.3 cells, read-out: cAMP (hPTHR-1) EC50): 0.58 nM
cAMP (hPTHR-1) Max (WT human PTHR-1; Table 1, luminescence counts per second relative to PTH(1-34), 12-16 minutes after ligand addition): 1.03
Max (WT human PTHR-1; Table 6, GP-2.3 cells, 12-16 minutes after ligand addition, mean ± SEM): 223 ± 14 luminescence counts per second × 10^−3
agonist activity at hPTHR-1 (cAMP response), in words (WT human PTHR-1; maximum cAMP response compared with PTH(1-34)): full agonists of hPTHR-1

CSCC[C@H](NC(=O)[C@H]1CCC[C@@H]1NC(=O)[C@H](CCC(N)=O)NC(=O)[C@H]1CCC[C@@H]1NC(=O)[C@H](CCC(=O)O)NC(=O)[C@H](CO)NC(=O)[C@@H](NC(=O)[C@H]1CCC[C@@H]1N)C(C)C)C(=O)N[C@@H](Cc1c[nH]cn1)C(=O)N[C@@H](CC(N)=O)C(=O)N[C@@H](CC(C)C)C(=O)NCC(=O)N[C@@H](CCCCN)C(=O)N[C@H]1CCC[C@@H]1C(=O)N[C@@H](CC(C)C)C(=O)N[C@@H](CC(N)=O)C(=O)N[C@@H](CO)C(=O)N[C@H]1CCC[C@@H]1C(=O)N[C@@H](CCC(=O)O)C(=O)N[C@@H](CCCNC(=N)N)C(=O)N[C@H](C(=O)N[C@H]1CNC[C@@H]1C(=O)N[C@@H](Cc1c[nH]c2ccccc12)C(=O)N[C@@H](CC(C)C)C(=O)N[C@@H](CCCNC(=N)N)C(=O)N[C@H]1CNC[C@@H]1C(=O)N[C@@H](CCCCN)C(=O)N[C@@H](CC(C)C)C(=O)N[C@@H](CCC(N)=O)C(=O)N[C@H]1CCC[C@@H]1C(=O)N[C@H](C(=O)N[C@@H](Cc1c[nH]cn1)C(=O)N[C@@H](CC(N)=O)C(=O)N[C@H]1CCC[C@@H]1C(N)=O)C(C)C)C(C)C [FcycD6_ACPC(1,5,7), XVSEXQXMHNLGKXLNSXERVZWLRZKLQXVHNX-NH2] ({ACPC(1S,2S)}-VSE[X12]Q[X12]MHNLGK[X12]LNS[X12]ERV[X13]WLR[X13]KLQ[X12]VHN-{NH(1S,2S-2-CONH2-cPent)}; N-terminus assumed)
cAMP response PTH2R/PTH1R (PTH2R/PTH1R): 45
Fold PTH (PTHR): 234

CC[C@H](C)[C@@H](CC(=O)N[C@@H](CCC(N)=O)C(=O)N[C@@H](CC(C)C)C(=O)N[C@@H](CCSC)C(=O)N[C@@H](Cc1c[nH]cn1)C(=O)N[C@@H](CC(N)=O)C(=O)N[C@@H](CC(C)C)C(=O)NCC(=O)N[C@@H](CCCCN)C(=O)N[C@@H](Cc1c[nH]cn1)C(=O)N[C@@H](CC(C)C)C(=O)N[C@@H](CC(N)=O)C(=O)N[C@@H](CO)C(=O)N[C@@H](CCSC)C(=O)N[C@@H](CCC(=O)O)C(=O)N[C@@H](CCCNC(=N)N)C(=O)N[C@H](C(=O)N[C@@H](CCC(=O)O)C(=O)N[C@@H](Cc1c[nH]c2ccccc12)C(=O)N[C@@H](CC(C)C)C(=O)N[C@@H](CCCNC(=N)N)C(=O)N[C@@H](CCCCN)C(=O)N[C@@H](CCCCN)C(=O)N[C@@H](CC(C)C)C(=O)N[C@@H](CCC(N)=O)C(=O)N[C@@H](CC(=O)O)C(=O)N[C@H](C(=O)N[C@@H](Cc1c[nH]cn1)C(=O)N[C@@H](CC(N)=O)C(=O)N[C@@H](Cc1ccccc1)C(N)=O)C(C)C)C(C)C)NC(=O)[C@H](CCC(=O)O)NC(=O)[C@H](CO)NC(=O)[C@@H](NC(=O)[C@@H](N)CO)C(C)C [β^3Ile(5)]
cAMP-inducing potency in delNT PTHR-1, in words (delNT PTHR1): weak or no potency
deINT PTHR1 EC50, nM (Means ± SEM) (delNT PTHR1; Table 8, truncated receptor lacking Ala^24-Arg^181): No activity

CC[C@H](C)[C@H](NC(=O)[C@H](CCC(=O)O)NC(=O)[C@H](CO)NC(=O)[C@@H](NC(=O)[C@@H](N)CO)C(C)C)C(=O)N[C@@H](CCC(N)=O)C(=O)N[C@H](CC(=O)N[C@@H](CCSC)C(=O)N[C@@H](Cc1c[nH]cn1)C(=O)N[C@@H](CC(N)=O)C(=O)N[C@@H](CC(C)C)C(=O)NCC(=O)N[C@@H](CCCCN)C(=O)N[C@@H](Cc1c[nH]cn1)C(=O)N[C@@H](CC(C)C)C(=O)N[C@@H](CC(N)=O)C(=O)N[C@@H](CO)C(=O)N[C@@H](CCSC)C(=O)N[C@@H](CCC(=O)O)C(=O)N[C@@H](CCCNC(=N)N)C(=O)N[C@H](C(=O)N[C@@H](CCC(=O)O)C(=O)N[C@@H](Cc1c[nH]c2ccccc12)C(=O)N[C@@H](CC(C)C)C(=O)N[C@@H](CCCNC(=N)N)C(=O)N[C@@H](CCCCN)C(=O)N[C@@H](CCCCN)C(=O)N[C@@H](CC(C)C)C(=O)N[C@@H](CCC(N)=O)C(=O)N[C@@H](CC(=O)O)C(=O)N[C@H](C(=O)N[C@@H](Cc1c[nH]cn1)C(=O)N[C@@H](CC(N)=O)C(=O)N[C@@H](Cc1ccccc1)C(N)=O)C(C)C)C(C)C)CC(C)C [β^3Leu(7)]
cAMP-inducing potency in delNT PTHR-1, in words (delNT PTHR1): weak or no potency

hPTHrP(1-36): parathyroid hormone-related protein fragment, comparator in the PTH2R/PTH1R cAMP response tables
cAMP response PTH2R/PTH1R (PTH2R/PTH1R): 0.04
cAMP response PTH1R/PTH2R (PTH2R/PTH1R): 27

hTIP(1-39): comparator peptide in the PTH2R/PTH1R cAMP response tables (SLALADDAAFRERARLLAALERRHWLNSYMHKLLVLDAP)
cAMP response PTH2R/PTH1R (PTH2R/PTH1R): 165
cAMP response PTH1R/PTH2R (PTH2R/PTH1R): 0.01
